Assay results as given in PMC12326976 (Antimicrobial Agents and Chemotherapy, 2025).
Bridge positions count the residues as written; N and C are the ends. Ends that are not written are not given here. I, II: the chains in the order shown.

Legend:
H1N1 virus = assay: Viral attachment assay, H1N1 on MDCK cells; format: cell-based, influenza H1N1 virus
Description: (§1) Viruses (H1N1 or rhinovirus A1) were treated with DMEM, 4H30 (25 µg mL^−1), or an influenza neutralization antibody at room temperature for 30 min and then added to cells for attachment at 4°C for 1 h. After washing the unbound virus, the attached virus on cells was measured by RT-qPCR. At least two experiments with biological duplication samples were included for each treatment.
MDCK cells were treated by ChABC (Sigma, Cat^# C2905, 1 U mL^−1), Hase I–III (Sigma, Cat^# H3917, 100 mU mL^−1), and Hase II (Sigma, Cat^# H6515, 100 mU mL^−1) at 37°C for 2 h in the buffer according to the manufacturer’s instruction. After washing cells with PBS, MEM or 4H30 (25 µg mL^−1) was added to cells for 30 min incubation, and then cells were washed with PBS. H1N1 (MOI = 1.0) was added to cells for attachment at 4°C for 1 h. The unbound virus was washed with PBS. The concentration of the attached virus was measured by RT-qPCR.

MDCK cells = assay: Cytotoxicity MTT assay in MDCK cells; format: cell-based, canine; details: 24 h incubation, Fig. 1f
Description: Cytotoxicity of peptides was determined by detecting 50% cytotoxic concentration (CC50) using a tetrazolium-based colorimetric MTT assay ([27]). Cells were seeded in a 96-well cell culture plate at an initial density of 4 × 10^4 cells per well in MEM, supplemented with 10% FBS and incubated overnight. Cell culture media were removed, and then MEM supplemented with various concentrations of peptides and 1% FBS was added to each well. After 24 h incubation at 37°C, the MTT solution (5 mg mL^−1, 10 µL per well) was added to each well for incubation at 37°C for 4 h. Then, 100 µL of 10% SDS in 0.01M HCl was added to each well. After further incubation at room temperature with shaking overnight, the plates were read at OD570 using the VictorTM X3 Multilabel Reader (PerkinElmer, USA). Cell culture wells without peptides were used as the experiment control, and the medium was a blank control.

[1] = tested on: neuraminidase activity of H1N1 virus; assay: Viral neuraminidase assay (NA-STAR); format: biochemical, influenza H1N1 virus; details: 4H30 50 and 12.5 µg mL^−1, 1 h, compared to zanamivir, Fig. S3
Description: Fig. S3. […] H1N1 virus was treated with MEM, zanamivir (5 μM and 1.25 μM), and 4H30 (50 μg mL^−1and 12.5 μg mL^−1) for 1 h. The neuraminidase activity was analysed using the Invitrogen NA-STAR INFLUENZA NIRD REAGENT (Cat^# 4374348). Data are presented as mean ± SD of indicated biological samples.

A(H1N1)pdm09 virus = tested on: A(H1N1)pdm09 virus; design: species or system BALB/c mice; details: mouse, in vivo
rhinovirus A1 [2] = assay: Viral attachment assay, rhinovirus A1 on RD cells; format: cell-based; details: virus treated with 4H30, attachment at 4°C, Fig. 4d
Description: as §1

rhinovirus A1 [3] = format: cell-based
rhinovirus A1 [4] = assay: Anti-rhinovirus assay in nasal organoids; format: cell-based; details: 4H30 25 µg mL^−1; viral loads in supernatants at 24, 48 and 72 hpi; RT-qPCR; Fig. 5b
Description: Organoid culture was established according to previous studies ([28], [29]). When the cells differentiated into mature 2D airway organoids within 12–14 days, the 2D organoids were ready for antiviral experiments. Rhinovirus (5000 TCID50) was mixed with peptide (25 µg mL^−1) or without peptides in culture media for organoid infection. After 2 h infection, we removed the infectious media and added fresh media with or without peptides. The supernatants were collected at 2 hpi, 24 hpi, 48 hpi, and 72 hpi to measure the viral loads by RT-qPCR.
Fig 5 4H30 inhibited rhinovirus replication in nasal organoids and cardiomyocytes. (a) Rhinovirus A1 could not replicate efficiently in mice. Rhinovirus (1 × 10^7 TCID50) was intranasally inoculated to mice. Viral RNAs were measured on day 1, day 2, and day 3 post-infection. […] (c) Rhinovirus A1 (0.01 MOI) could effectively replicate in cardiomyocytes. […] Viral RNAs in the cell supernatants were measured by RT-qPCR at the indicated time points. Data are presented as mean ± SD of indicated biological samples.

I: GAICHPVFCPRRYKQIGTCGLPGTKCCKKPKK / II: GAICHPVFCPRRYKQIGTCGLPGTKCCKKPK / III: GAICHPVFCPRRYKQIGTCGLPGTKCCKKP / IV: GAICHPVFCPRRYKQIGTCGLPGTKCCKKP (amide I:31-IV:C, I:32-II:C, II:31-III:C; cysteines drawn unpaired) [4H30]
H1N1 attachment to MDCK cells (H1N1 virus; 4H30 25 µg mL^−1, attachment at 4°C, RT-qPCR, Fig. 1d): increased the viral attachment to cells | 4H30-induced increase in H1N1 attachment after removal of cellular GAGs (H1N1 virus; MDCK cells treated with Hase and ChABC, 4H30 25 µg mL^−1, attachment at 4°C, Fig. 2d): significantly reduced when cells were treated with enzymes of Hase and ChABC | cytotoxicity in MDCK cells (MDCK cells): did not show noticeable toxicity in MDCK cells | effect on neuraminidase activity [1]: did not affect neuraminidase activity | survival of mice after lethal H1N1 challenge (protected mice) (A(H1N1)pdm09 virus): 5/6 | body weight loss of H1N1-infected mice (A(H1N1)pdm09 virus; 0.5 mg/kg): significantly reduced body weight loss | viral loads in the lungs on day 2 post-infection (A(H1N1)pdm09 virus; 0.5 mg/kg): significantly inhibited H1N1 viral replication in mouse lungs | rhinovirus attachment to RD cells (rhinovirus A1 [2]): reduced rhinovirus attachment to RD cells | rhinovirus release from RD cells (rhinovirus A1 [3]): did not inhibit viral release | rhinovirus replication in nasal organoids (rhinovirus A1 [4]): significantly inhibited rhinovirus replication in nasal organoids
